ChEMBL document CHEMBL4052681, “Discovery of simplified leucyladenylate sulfamates as novel leucyl-tRNA synthetase (LRS)-targeted mammalian target of rapamycin complex 1 (mTORC1) inhibitors” (Bioorg Med Chem, 2017)
pIC50: −log10 of the molar value. Activity calls are given as the source filed them. The rule behind the calls is not given here.

What was measured:
[1] = biological target: T1, Leucine--tRNA ligase, cytoplasmic (Homo sapiens, UniProt Q9P2J5); assay: Inhibition of LRS-dependent mTORC1 activation in HEK293 cells assessed as reduction in leucine-induced mTORC1-mediated S6 Kinase phosphorylation at 200 uM pretreated before leucine stimulation measured after 10 mins by immunoblot analysis; assay type: cell-based
Target sequence in this assay (Q9P2J5 whole entry, looked up): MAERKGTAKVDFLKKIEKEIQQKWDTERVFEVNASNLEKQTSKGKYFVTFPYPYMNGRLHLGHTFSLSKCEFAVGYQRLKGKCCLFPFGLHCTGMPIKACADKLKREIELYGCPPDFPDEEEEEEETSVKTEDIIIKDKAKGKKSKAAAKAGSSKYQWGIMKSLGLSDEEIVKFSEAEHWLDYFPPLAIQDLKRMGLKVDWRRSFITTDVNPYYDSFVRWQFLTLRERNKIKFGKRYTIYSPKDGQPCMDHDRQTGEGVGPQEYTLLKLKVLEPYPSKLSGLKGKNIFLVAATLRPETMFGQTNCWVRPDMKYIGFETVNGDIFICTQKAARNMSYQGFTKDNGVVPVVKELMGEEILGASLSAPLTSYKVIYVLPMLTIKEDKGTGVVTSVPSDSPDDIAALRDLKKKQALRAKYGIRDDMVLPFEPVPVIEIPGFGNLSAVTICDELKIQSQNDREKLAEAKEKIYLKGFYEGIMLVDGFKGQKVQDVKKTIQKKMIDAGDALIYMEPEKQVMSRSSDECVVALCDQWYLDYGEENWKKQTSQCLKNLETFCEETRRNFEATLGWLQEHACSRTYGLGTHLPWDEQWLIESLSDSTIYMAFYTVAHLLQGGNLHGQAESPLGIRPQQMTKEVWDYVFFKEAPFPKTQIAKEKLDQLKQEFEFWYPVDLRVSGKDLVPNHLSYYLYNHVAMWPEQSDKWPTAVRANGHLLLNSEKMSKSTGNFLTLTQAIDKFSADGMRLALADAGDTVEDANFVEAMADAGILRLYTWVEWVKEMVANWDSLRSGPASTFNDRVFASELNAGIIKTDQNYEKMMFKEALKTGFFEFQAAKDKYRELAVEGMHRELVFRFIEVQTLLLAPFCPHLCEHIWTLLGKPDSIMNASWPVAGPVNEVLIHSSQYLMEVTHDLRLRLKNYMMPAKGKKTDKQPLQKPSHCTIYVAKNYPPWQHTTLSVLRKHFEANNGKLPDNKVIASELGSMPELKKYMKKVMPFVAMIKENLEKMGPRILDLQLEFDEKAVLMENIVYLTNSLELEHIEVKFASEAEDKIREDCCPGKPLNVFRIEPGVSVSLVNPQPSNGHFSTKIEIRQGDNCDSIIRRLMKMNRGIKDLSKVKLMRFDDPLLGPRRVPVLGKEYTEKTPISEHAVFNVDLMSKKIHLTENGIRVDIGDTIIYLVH

[2] = biological target: T1, Leucine--tRNA ligase, cytoplasmic; assay: Inhibition of LRS canonical enzyme activity in HEK293 cells assessed as effect on enzyme-mediated aminoleucylation; assay type: cell-based
Target sequence in this assay (Q9P2J5 whole entry): as the sequence (Q9P2J5 whole entry, looked up) above

A549 = assay: Growth inhibition of human A549 cells incubated for 72 hrs by sulforhodamine B assay; assay type: functional, cell-based; conditions: A549, 72 h
SK-HEP1 = assay: Growth inhibition of human SKHEP1 cells incubated for 72 hrs by sulforhodamine B assay; assay type: functional, cell-based; conditions: SK-HEP1, 72 h
MRC5 = assay: Growth inhibition of human MRC5 cells incubated for 72 hrs by sulforhodamine B assay; assay type: cell-based; conditions: MRC5, 72 h
MDA-MB-231 = assay: Growth inhibition of human MDA-MB-231 cells incubated for 72 hrs by sulforhodamine B assay; assay type: functional, cell-based; conditions: MDA-MB-231, 72 h
K562 = assay: Growth inhibition of human K562 cells incubated for 72 hrs by sulforhodamine B assay; assay type: functional, cell-based; conditions: K562, 72 h
SNU-638 = assay: Growth inhibition of human SNU638 cells incubated for 72 hrs by sulforhodamine B assay; assay type: functional, cell-based; conditions: SNU-638, 72 h
[3] = biological target: T1, Leucine--tRNA ligase, cytoplasmic; assay: Inhibition of LRS-dependent mTORC1 activation in HEK293 cells assessed as reduction in leucine-induced mTORC1-mediated S6 Kinase phosphorylation pretreated before leucine stimulation measured after 10 mins by immunoblot analysis; assay type: cell-based
HCT-116 = assay: Growth inhibition of human HCT116 cells incubated for 72 hrs by sulforhodamine B assay; assay type: functional, cell-based; conditions: HCT-116, 72 h
[4] = biological target: T1, Leucine--tRNA ligase, cytoplasmic; assay: Inhibition of LRS-dependent mTORC1 activation in HEK293 cells assessed as reduction in leucine-induced mTORC1-mediated S6 Kinase phosphorylation at 20 to 200 uM pretreated before leucine stimulation measured after 10 mins by immunoblot analysis; assay type: cell-based
Target sequence in this assay (Q9P2J5 whole entry, looked up): as above

[5] = biological target: T1, Leucine--tRNA ligase, cytoplasmic; assay: Inhibition of LRS-dependent mTORC1 activation in HEK293 cells assessed as reduction in leucine-induced mTORC1-mediated S6 Kinase phosphorylation at 100 nM pretreated before leucine stimulation measured after 10 mins by immunoblot analysis; assay type: cell-based
Target sequence in this assay (Q9P2J5 whole entry, looked up): as above

inhibition of S6K phosphorylation (qualitative) [1] | pIC50 (A549) | pIC50 (SK-HEP1) | pIC50 (MDA-MB-231) | pIC50 (K562) | pIC50 (SNU-638) | pIC50 (HCT-116) | Compound | pIC50 (MRC5) | also measured
Active |  |  |  |  |  |  | COc1ccc(CNS(=O)(=O)c2ccc(NC(=O)[C@@H](O)CC(C)C)cc2)cc1OC |  | 
 | 5.26 | 5.61 | 5.25 | 5.54 | 5.28 | 5.37 | COc1ccc(CNS(=O)(=O)c2ccc(N3C(=O)N[C@@H](CC(C)C)C3=O)cc2)cc1OC | < 4.70 | pIC50 [2]: < 3.10; pIC50 [3]: 4.58; inhibition [3]: Dose-dependent effect
 |  |  |  |  |  |  | COc1ccc(CNS(=O)(=O)c2ccc(N3C[C@H](CC(C)C)NC3=O)cc2)cc1OC |  | inhibition [4]: inactive
Active |  |  |  |  |  |  | CC(C)C[C@H](O)C(=O)NS(=O)(=O)OC[C@H]1O[C@@H](n2cnc3c(N)nc(I)nc32)[C@H](O)[C@@H]1O |  | 
 |  |  |  |  |  |  | CO[C@H]1C[C@@H]2CC[C@@H](C)[C@@](O)(O2)C(=O)C(=O)N2CCCC[C@H]2C(=O)O[C@H]([C@H](C)C[C@@H]2CC[C@@H](O)[C@H](OC)C2)CC(=O)[C@H](C)/C=C(\C)[C@@H](O)[C@@H](OC)C(=O)[C@H](C)C[C@H](C)/C=C/C=C/C=C/1C |  | inhibition [5]: Active
Active | 5.28 | 5.51 | 5.26 | 5.35 | 5.20 | 5.40 | COc1ccc(CNS(=O)(=O)c2ccc(NC(=O)[C@@H](N)CC(C)C)cc2)cc1OC | < 4.70 | pIC50 [2]: < 3.10; pIC50 [3]: 4.35; inhibition [3]: Dose-dependent effect
Active |  |  |  |  |  |  | COc1ccc(CNS(=O)(=O)c2ccc(NC(=O)[C@@H](O)[C@H](O)C(C)C)cc2)cc1OC |  | 

Compound | inhibition of S6K phosphorylation (qualitative) [1] | pIC50 (A549) | pIC50 (SK-HEP1) | pIC50 (MDA-MB-231) | pIC50 (K562) | pIC50 (SNU-638) | pIC50 (HCT-116) | pIC50 (MRC5) | also measured
COc1cc([C@@H]2c3cc4c(cc3[C@@H](O[C@@H]3O[C@@H]5CO[C@@H](C)O[C@H]5[C@H](O)[C@H]3O)[C@H]3COC(=O)[C@H]23)OCO4)cc(OC)c1O [ETOPOSIDE] |  | 6.52 | 6.20 | 5.82 | 6.12 | 5.98 | 5.97 | 4.93 | 
